Assays:
intestinal lactase [1] = target: T1, intestinal lactase (Rattus norvegicus, UniProt Q02401); assay: Excretion of xylose in urine after oral 4-galactosyl-xylose versus intestinal lactase activity in unweaned rats; type: in vivo
T1 construct: hydrolysis of the 4-galactosyl-xylose administered is detected by the action of intestinal lactase; from tissue; host or cells: small-intestinal mucous membrane of living unweaned rats (in vivo); activity also measured post mortem in mucosa homogenate
T1 sequence (Q02401 868-1928): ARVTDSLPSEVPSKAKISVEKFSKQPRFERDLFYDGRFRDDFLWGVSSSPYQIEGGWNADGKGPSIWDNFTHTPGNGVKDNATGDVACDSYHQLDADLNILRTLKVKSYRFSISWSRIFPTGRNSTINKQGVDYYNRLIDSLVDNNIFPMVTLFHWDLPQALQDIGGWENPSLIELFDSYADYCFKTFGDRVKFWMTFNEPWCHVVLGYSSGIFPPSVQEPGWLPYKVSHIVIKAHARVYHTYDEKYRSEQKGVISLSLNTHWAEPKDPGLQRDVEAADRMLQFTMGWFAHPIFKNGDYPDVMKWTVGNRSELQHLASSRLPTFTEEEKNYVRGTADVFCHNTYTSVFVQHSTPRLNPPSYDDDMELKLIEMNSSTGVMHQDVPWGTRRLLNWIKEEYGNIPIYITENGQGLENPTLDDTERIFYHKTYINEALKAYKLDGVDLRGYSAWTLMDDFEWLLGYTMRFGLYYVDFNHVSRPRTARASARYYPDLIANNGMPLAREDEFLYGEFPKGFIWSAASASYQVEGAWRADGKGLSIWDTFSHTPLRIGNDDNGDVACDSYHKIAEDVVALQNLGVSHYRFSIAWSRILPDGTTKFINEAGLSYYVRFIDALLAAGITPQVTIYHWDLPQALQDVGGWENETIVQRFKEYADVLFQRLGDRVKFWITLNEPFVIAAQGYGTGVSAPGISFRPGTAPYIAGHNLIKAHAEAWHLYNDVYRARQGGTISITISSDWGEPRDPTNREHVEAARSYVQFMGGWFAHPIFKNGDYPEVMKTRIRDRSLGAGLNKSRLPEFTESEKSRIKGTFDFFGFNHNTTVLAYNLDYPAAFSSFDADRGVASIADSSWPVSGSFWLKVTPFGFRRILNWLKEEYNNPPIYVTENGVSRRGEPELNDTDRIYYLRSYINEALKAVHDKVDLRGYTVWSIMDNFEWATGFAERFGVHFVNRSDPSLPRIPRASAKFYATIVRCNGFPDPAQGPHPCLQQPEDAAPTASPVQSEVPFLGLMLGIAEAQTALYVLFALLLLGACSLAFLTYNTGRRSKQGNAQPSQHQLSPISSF
Excerpt: Correlation between the excretion of xylose in urine and the presence of xylose in blood after oral administration of 4-galactosyl-xylose with intestinal lactase activity. This has been shown in unweaned rats comparing during the growth of these animals, the excretion of xylose in urine after orally administering to them 4-galactosyl-xylose, with lactase activity evaluated postmortem in the intestinal mucous membrane, which is known to physiologically reduce during growth. For this purpose, a group comprised of 20 12-day old unweaned rats belonging to two litters fasted for 6 hours by being separated from the mother. […] Immediately after the urine has been collected, four of the animals were sacrificed and the lactase activity in the intestinal mucous membrane was directly evaluated. […] The lactase activity in the homogenized product was measured spectrophotometrically. […] Therein one can see: 1) That the presence of xylose in urine coming from the hydrolysis of the 4-galactosyl-xylose administered is detected by the action of intestinal lactase; 2) That the rate of excretion of xylose in urine caused by oral administration of 4-galactosyl-xylose during the growth of the animals, runs parallel to the known physiological modification of intestinal lactase activity that reduces during growth. […]

intestinal lactase [2] = target: T1, intestinal lactase; assay: Xylose in blood plasma after oral 4-galactosyl-xylose versus intestinal lactase activity in unweaned rats; type: in vivo
Excerpt: Correlation between the excretion of xylose in urine and the presence of xylose in blood after oral administration of 4-galactosyl-xylose with intestinal lactase activity. This has been shown in unweaned rats by comparing during the growth of these animals the amount of xylose in plasma analyzed after orally administering to them 4-galactosyl-xylose with specific lactase activity evaluated postmortem in the intestinal mucous membrane. For this purpose, a group comprised of 60 12-day old unweaned rats belonging to two litters fasted for 6 hours by being separated from the mother. After this period of time passed, basal blood was extracted from each animal by means of a heart puncture and each rat was immediately administered 8 mg of 4-galactosyl-xylose diluted in 0.3 ml of distilled water by using an intraesophageal probe. 3 hours after the disaccharide was administered another blood sample was extracted. The blood plasma or supernatant fraction was obtained by centrifuging this sample and the xylose therein was titrated by calorimetric analysis with fluoroglucinol and using the plasma of the basal blood as the target. Immediately after the blood was extracted, four of the animals were sacrificed and the lactase activity in the intestinal mucous membrane was directly evaluated in the same manner as the one described in Example 1. […]

Compound: OCC1O[C@@H](O[C@@H]2COC(O)C(O)[C@H]2O)C(O)[C@@H](O)[C@H]1O (stereo partly shown)
- linear correlation coefficient (r) between excretion of xylose in urine and intestinal lactase activity (intestinal lactase [1]; unweaned rats aged 12 to 35 days, 4 mg oral, urine of 6 hours, lactase evaluated postmortem in intestinal mucous membrane): 0.96
- dose dependence of excretion of xylose in urine (intestinal lactase [1]; unweaned rats, oral doses from 2 to 32 mg in 0.3 ml of water): increases with the increase of the amount of 4-galactosyl-xylose administered
- linear correlation coefficient (r) between xylose in blood plasma and intestinal lactase activity (intestinal lactase [2]; unweaned rats aged 12 to 35 days, 8 mg oral, plasma 3 hours after administration): 0.98
- dose dependence of amount of xylose in plasma (intestinal lactase [2]; unweaned rats, oral doses between 4 and 16 mg in 0.3 ml of water): increases with the increase of the amount of 4-galactosyl-xylose

Reference: patent US20050238580A1 (priority 2002, published 2005)
